Data set [1] can be described thus: Stability against liver microsomes. The conditions noted are these: for % degradation in 24 h when incubated with liver microsomes: 2 μM, 37° C.; for half-life at 2 μM: human, human liver microsomes, pH 7.8, 37° C., read-out: half-life (t1/2) with liver microsomes. The class given is in vitro ADME, human. Put shortly:
(§1)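 Acidic quench (10% v/v TFA/H2O) preceded reversed-phase chromatography monitored at 206 nm, with fractions confirmed by ESI-MS.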
For orientation: Liver microsomes are vesicles of endoplasmic reticulum, rich in cytochrome P450 enzymes.

Data set [2] concerns RIN5F (Rat Insulinoma) cells. Nature of the data set: In vitro glucose-dependent insulin secretion (RIN5F cell assay). It counts as cell-based. To be noted: 16.7 mM glucose load, mean ± S.D., n = 3.
A short description of data set [3]: Stability in simulated intestinal fluid. The conditions noted are these: 2 μM, 37° C., pH 7.5. The class given is in vitro ADME. Put shortly: as §1
The next data set concerns the target DPP IV (Homo sapiens, UniProt P27487). Nature of the data set: Stability against DPP IV enzyme. The class given is in vitro ADME. To be noted: for % degradation in 24 h when incubated with DPP-IV enzyme: 2 μM, 37° C.; for half-life at 2 μM: DPP IV enzyme, pH 7.8, 37° C., read-out: half-life (t1/2) with DPP-IV enzyme. The method in brief: as §1
Data set [4] is described as follows: Stability in human plasma. To be noted: for % degradation in 24 h when incubated with human plasma: 2 μM, 37° C.; for half-life at 2 μM: human, pooled human plasma, pH 7.8, 37° C., read-out: half-life (t1/2) in human plasma. It counts as in vitro ADME. Put shortly:
as §1

The next data set addresses T1, human glucagon receptor (Homo sapiens, UniProt P47871).
T1 construct: The full-length cDNA was cloned in pcDNA3.1(Invitrogen); expressed in transfected cells
Nature of the data set: In vitro human glucagon antagonist activity (inhibition of cAMP production), CHO/human glucagon R cells. It counts as cell-based. Background: Cyclic AMP is a second messenger, typically raised through Gs and lowered through Gi signalling.

A short description of data set [5]: Stability in simulated gastric fluid. The class given is in vitro ADME. To be noted: 2 μM, 37° C., pH 1.5, pepsin. The method in brief: as §1
Setting [6] is: 1 nM test compound (fourth concentration column, between 100 nM and 10 μM) with saturated concentration of glucagon peptide.
Where [7] appears, read: 1 nM test compound with saturated concentration of glucagon peptide.
[8] abbreviates: 10 nM test compound with saturated concentration of glucagon peptide.
[9] abbreviates: 100 nM test compound with saturated concentration of glucagon peptide.
[10] abbreviates: 10 μM test compound with saturated concentration of glucagon peptide.

Each structure is given as a SMILES string.

The values that follow come from patent US8841413B2, “Antidiabetic compounds” (Cadila Healthcare Limited, priority 2006, dated 2014).

T1 sequence (P47871 26-477): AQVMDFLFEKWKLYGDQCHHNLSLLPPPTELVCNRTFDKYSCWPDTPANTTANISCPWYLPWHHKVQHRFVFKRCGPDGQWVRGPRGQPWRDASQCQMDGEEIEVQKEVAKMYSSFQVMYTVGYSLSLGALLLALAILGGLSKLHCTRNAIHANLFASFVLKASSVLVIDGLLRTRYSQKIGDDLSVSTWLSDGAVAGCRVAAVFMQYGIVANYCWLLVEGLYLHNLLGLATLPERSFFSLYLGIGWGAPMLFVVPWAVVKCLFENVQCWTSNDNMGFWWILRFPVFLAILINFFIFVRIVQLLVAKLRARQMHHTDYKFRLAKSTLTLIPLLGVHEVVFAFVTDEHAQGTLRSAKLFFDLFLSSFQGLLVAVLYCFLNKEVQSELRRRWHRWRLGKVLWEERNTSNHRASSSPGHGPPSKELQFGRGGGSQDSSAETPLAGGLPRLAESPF
DPP IV, sequence (P27487 whole entry, species assumed): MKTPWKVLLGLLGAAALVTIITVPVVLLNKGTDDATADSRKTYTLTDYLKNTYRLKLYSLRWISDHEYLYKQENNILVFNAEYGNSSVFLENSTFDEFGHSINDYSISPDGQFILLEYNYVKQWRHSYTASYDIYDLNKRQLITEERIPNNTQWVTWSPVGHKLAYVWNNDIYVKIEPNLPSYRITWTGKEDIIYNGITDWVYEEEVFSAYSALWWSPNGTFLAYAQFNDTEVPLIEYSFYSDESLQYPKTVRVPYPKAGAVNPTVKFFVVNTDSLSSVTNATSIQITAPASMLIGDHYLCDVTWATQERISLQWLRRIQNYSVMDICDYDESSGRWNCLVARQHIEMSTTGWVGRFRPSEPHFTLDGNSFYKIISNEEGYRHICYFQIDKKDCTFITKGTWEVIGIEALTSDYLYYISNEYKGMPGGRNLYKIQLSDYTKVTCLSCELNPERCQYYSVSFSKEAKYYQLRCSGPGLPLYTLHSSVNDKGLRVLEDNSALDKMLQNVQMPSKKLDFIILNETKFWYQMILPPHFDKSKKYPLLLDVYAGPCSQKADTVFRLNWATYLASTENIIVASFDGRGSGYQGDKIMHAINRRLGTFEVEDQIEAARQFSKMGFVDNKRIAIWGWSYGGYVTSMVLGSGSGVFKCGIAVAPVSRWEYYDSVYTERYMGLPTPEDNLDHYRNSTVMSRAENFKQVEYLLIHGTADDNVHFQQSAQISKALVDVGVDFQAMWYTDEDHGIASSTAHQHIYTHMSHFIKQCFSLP

Turning to `CCc1cc(OC)ccc1-c1ccc(CC(NC(=O)[C@H](CC(=O)O)NC(=O)[C@H](CO)NC(=O)[C@@H](NC(=O)C(C)(Cc2ccccc2F)NC(=O)[C@@H](NC(=O)CNC(=O)[C@H](CCC(N)=O)NC(=O)[C@H](C)NC(=O)[C@@H](N)Cc2c[nH]cn2)[C@@H](C)O)[C@@H](C)O)C(=O)NC(Cc2ccc(-c3ccccc3C)cc2)C(N)=O)cc1` (single isomer, unassigned) [compound 25], the “% degradation in 24 h when incubated with liver microsomes” value (“% degradation … with liver microsomes” for short) in data set [1] was found to be 83%. Besides, the half-life at 2 μM in data set [1] turned out to be 1 h; on DPP IV it was 9 h; in data set [4], 8 h. The figures for the Insulin secretion in data set [2] (0.1 nM test compd.), in data set [2] (1 nM test compd.) and in data set [2] (10 nM test compd.) were 12.4 ± 0.22 pg/µg/h, 15.2 ± 0.32 pg/µg/h and 29.6 ± 0.50 pg/µg/h, respectively. The “% degradation in 24 h when incubated with simulated intestinal fluid” value (from here on “% degradation … with simulated intestinal fluid”) in data set [3] is on record as 46%. For the same molecule, the “half-life (t1/2) in simulated intestinal fluid” value in data set [3] is listed as “(6) h”. On DPP IV, the “% degradation in 24 h when incubated with DPP-IV enzyme” value (“% degradation … with DPP-IV enzyme” below) is 74%. For the same molecule, in data set [4], the “% degradation in 24 h when incubated with human plasma” value (from here on “% degradation … with human plasma”) is reported as 75%. The “Human Glucagon receptor antagonistic activity, inhibition of cAMP production of Glucagon peptide” value on human glucagon receptor (setting [6]) stood at 8 ± 0.12 pmol/ml/μg prt; on human glucagon receptor (setting [7]) it was 18 ± 0.12 pmol/ml/μg prt; on human glucagon receptor (setting [8]) it was 16 ± 0.11 pmol/ml/μg prt; on human glucagon receptor (setting [9]), 12 ± 0.13 pmol/ml/μg prt; at human glucagon receptor (setting [10]) it was 6 ± 0.18 pmol/ml/μg prt. In addition, the “% degradation in 24 h when incubated with simulated gastric fluid” value (from here on “% degradation … with simulated gastric fluid”) in data set [5] is reported as 12%. The “half-life (t1/2) in simulated gastric fluid” value in data set [5] is given as “(8) h”.

Regarding `CCc1cc(OC)ccc1-c1ccc(CC(NC(=O)[C@H](CC(=O)O)NC(=O)[C@H](CO)NC(=O)[C@@H](NC(=O)C(C)(Cc2ccccc2F)NC(=O)[C@@H](NC(=O)CNC(=O)[C@H](CCC(N)=O)NC(=O)[C@H](C)NC(=O)[C@@H](N)Cc2c[nH]cn2)[C@@H](C)O)[C@@H](C)O)C(=O)NC(Cc2ccc(-c3ccccc3C)nc2)C(N)=O)cc1` (single isomer, unassigned) [compound 26], in data set [1], the “% degradation … with liver microsomes” value was determined as 78%. Moreover, the values for the half-life at 2 μM (in data set [1]; on DPP IV; in data set [4]) were 1 h, 9 h and 8 h, respectively. Besides, the Insulin secretion came out at 12.1 ± 0.51 pg/µg/h in data set [2] (0.1 nM test compd.), 14.1 ± 0.19 pg/µg/h in data set [2] (1 nM test compd.) and 28.1 ± 0.29 pg/µg/h in data set [2] (10 nM test compd.). Also, the “% degradation … with simulated intestinal fluid” value in data set [3] is reported as 40%. For the same molecule, in data set [3], the “half-life (t1/2) in simulated intestinal fluid” value is “(6) h”. In addition, the “% degradation … with DPP-IV enzyme” value at DPP IV is 70%. The “% degradation … with human plasma” value in data set [4] is 71%. In addition, the “Human Glucagon receptor antagonistic activity, inhibition of cAMP production of Glucagon peptide” value at human glucagon receptor (setting [6]) is listed as 4 ± 0.01 pmol/ml/μg prt; at human glucagon receptor (setting [7]), 15 ± 0.11 pmol/ml/μg prt; at human glucagon receptor (setting [8]), 12 ± 0.13 pmol/ml/μg prt; at human glucagon receptor (setting [9]) it was 8 ± 0.09 pmol/ml/μg prt; on human glucagon receptor (setting [10]), 2 ± 0.08 pmol/ml/μg prt. The “% degradation … with simulated gastric fluid” value in data set [5] is listed as 14%. In addition, the “half-life (t1/2) in simulated gastric fluid” value in data set [5] is “(8) h”.

Turning to `CCc1cc(OC)ccc1-c1ccc(CC(NC(=O)[C@H](CC(=O)O)NC(=O)[C@H](CO)NC(=O)[C@@H](NC(=O)C(C)(Cc2ccccc2F)NC(=O)[C@@H](NC(=O)CNC(=O)[C@H](CCC(N)=O)NC(=O)[C@H](C)NC(=O)[C@@H](N)Cc2c[nH]cn2)[C@@H](C)O)[C@@H](C)O)C(=O)NC(Cc2ccc(-c3ccccc3F)cc2)C(N)=O)cc1` (single isomer, unassigned) [compound 27], the “% degradation … with liver microsomes” value in data set [1] is given as 77%. Further, the half-life at 2 μM in data set [1] is 1 h; at DPP IV, 9 h; in data set [4], 8 h. Also, the Insulin secretion in data set [2] (0.1 nM test compd.) is 12.6 ± 0.25 pg/µg/h; in data set [2] (1 nM test compd.), 15.3 ± 0.31 pg/µg/h; in data set [2] (10 nM test compd.) it was 29.7 ± 0.48 pg/µg/h. For the same molecule, in data set [3], the “% degradation … with simulated intestinal fluid” value is 41%. Besides, in data set [3], the “half-life (t1/2) in simulated intestinal fluid” value is “(6) h”. Also, on DPP IV, the “% degradation … with DPP-IV enzyme” value was determined as 86%. Further, the “% degradation … with human plasma” value in data set [4] is 70%. For the same molecule, the “Human Glucagon receptor antagonistic activity, inhibition of cAMP production of Glucagon peptide” value at human glucagon receptor (setting [6]) is 3 ± 0.12 pmol/ml/μg prt; at human glucagon receptor (setting [7]), 14 ± 0.02 pmol/ml/μg prt; at human glucagon receptor (setting [8]), 11 ± 0.03 pmol/ml/μg prt; on human glucagon receptor (setting [9]), 7 ± 0.22 pmol/ml/μg prt; on human glucagon receptor (setting [10]), 0 pmol/ml/μg prt. For the same molecule, in data set [5], the “% degradation … with simulated gastric fluid” value is recorded as 15%. Also, in data set [5], the “half-life (t1/2) in simulated gastric fluid” value is “(8) h”.

In the case of `CCc1cc(OC)ccc1-c1ccc(CC(NC(=O)[C@H](CC(=O)O)NC(=O)[C@H](CO)NC(=O)[C@@H](NC(=O)C(C)(Cc2ccccc2F)NC(=O)[C@@H](NC(=O)CNC(=O)[C@H](CCC(N)=O)NC(=O)[C@H](C)NC(=O)[C@@H](N)Cc2c[nH]cn2)[C@@H](C)O)[C@@H](C)O)C(=O)NC(Cc2ccc(-c3ccccc3C(F)(F)F)cc2)C(N)=O)cc1` (single isomer, unassigned) [compound 28], in data set [1], the “% degradation … with liver microsomes” value is 78%. Moreover, the half-life at 2 μM in data set [1] is 1 h; on DPP IV, 9 h; in data set [4] it was 8 h. Further, the Insulin secretion turned out to be 12.0 ± 0.14 pg/µg/h in data set [2] (0.1 nM test compd.), 14.3 ± 0.12 pg/µg/h in data set [2] (1 nM test compd.) and 27.8 ± 0.32 pg/µg/h in data set [2] (10 nM test compd.). Moreover, in data set [3], the “% degradation … with simulated intestinal fluid” value is given as 42%. In addition, the “half-life (t1/2) in simulated intestinal fluid” value in data set [3] was “(6) h”. Also, on DPP IV, the “% degradation … with DPP-IV enzyme” value worked out at 72%. Besides, in data set [4], the “% degradation … with human plasma” value was determined as 70%. In addition, the “Human Glucagon receptor antagonistic activity, inhibition of cAMP production of Glucagon peptide” value at human glucagon receptor (setting [6]) is listed as 0 pmol/ml/μg prt; at human glucagon receptor (setting [7]), 4 ± 0.06 pmol/ml/μg prt; on human glucagon receptor (setting [8]) it was 3 ± 0.11 pmol/ml/μg prt; on human glucagon receptor (setting [9]), 0 pmol/ml/μg prt; on human glucagon receptor (setting [10]), 0 pmol/ml/μg prt. In addition, in data set [5], the “% degradation … with simulated gastric fluid” value is reported as 12%. In data set [5], the “half-life (t1/2) in simulated gastric fluid” value is listed as “(8) h”.
